Patent US7109012B2, “Recombinant lysophosphatidic acid phosphatase” (Azwell Inc., priority 1998, dated 2006)

Legend:
Assay type in all cases: biochemical
bovine LPA phosphatase [1] = biological target: T1, bovine LPA phosphatase (Bos taurus, UniProt A6H757); assay: Substrate specificity, free phosphate quantified by molybdate/ascorbic acid absorbance at 795 nm; conditions: 37° C., 15 minutes, pH 7.5
T1 construct: from tissue; host or cells: bovine brain, cytosol fraction
T1 sequence (A6H757 33-429): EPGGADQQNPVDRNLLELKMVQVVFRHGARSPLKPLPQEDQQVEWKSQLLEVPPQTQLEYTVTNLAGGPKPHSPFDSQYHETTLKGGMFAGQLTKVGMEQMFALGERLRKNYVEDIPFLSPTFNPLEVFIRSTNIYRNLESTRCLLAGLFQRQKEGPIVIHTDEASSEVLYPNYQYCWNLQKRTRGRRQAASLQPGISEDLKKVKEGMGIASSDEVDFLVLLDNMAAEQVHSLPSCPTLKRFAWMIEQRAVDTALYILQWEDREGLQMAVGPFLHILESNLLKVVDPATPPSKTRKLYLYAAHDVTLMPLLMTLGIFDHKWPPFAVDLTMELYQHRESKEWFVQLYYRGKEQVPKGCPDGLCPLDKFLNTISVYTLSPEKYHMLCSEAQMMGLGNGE
Procedure: The activity for the LPA Phosphatase was determined in 50 μl of a reaction mixture [50 mM Tris-maleic acid (pH 7.5), 50 μM monooleoyl-[9,10-^3H]-lysophosphatidic acid (5×10^4 dpm), Triton™-X100 at 4-fold molar concentration of the substrate and enzymes at various concentrations]. The above mixture was incubated at 37° C. for 15 minutes, and the enzyme activity was determined by measuring the generated [^3H]monooleoylglycerol.
Each of the enzyme reaction solutions containing various substrates was reacted in the same manner as in Test Example 1, and 25 μl of perchloric acid was added to terminate the reaction. Seventy-five microliters of […], 25 μl of 10% ammonium molybdate and 50 μl of 10% ascorbic acid were further added thereto. The mixed solution was boiled at 95° C. for 5 minutes, and thereafter the absorbance at 795 nm was determined to quantify free phosphate.

[2] = biological target: T2, Recombinant LPA Phosphatase (Homo sapiens, UniProt Q9NPH0); assay: Determination reagent (Reagent a / Reagent b), coupled enzymatic phosphate assay, absorbance at 570 nm; conditions: 5 minutes after Reagent b; for whether assayed by the determination reagent (change in absorbance at 570 nm): 0.2 mmol/l sample, 37° C.
T2 construct: comprises a signal peptide consisting of 40 amino acid residues at N-terminal, and was a novel phosphatase having 421 amino acid residues; 6xHis; made in house; host or cells: E. coli JM109, vector pQE-30
T2 sequence (Q9NPH0 48-428 limits assumed): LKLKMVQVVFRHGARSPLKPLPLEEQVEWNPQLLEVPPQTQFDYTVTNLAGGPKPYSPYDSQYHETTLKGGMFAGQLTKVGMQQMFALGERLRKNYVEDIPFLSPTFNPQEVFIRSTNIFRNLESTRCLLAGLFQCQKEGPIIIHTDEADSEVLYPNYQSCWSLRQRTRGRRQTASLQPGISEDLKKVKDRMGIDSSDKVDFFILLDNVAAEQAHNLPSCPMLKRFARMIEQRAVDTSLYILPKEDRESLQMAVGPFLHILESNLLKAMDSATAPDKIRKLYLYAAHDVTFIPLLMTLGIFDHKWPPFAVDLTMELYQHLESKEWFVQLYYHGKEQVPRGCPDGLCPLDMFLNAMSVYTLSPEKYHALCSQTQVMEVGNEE
Procedure: The following determination reagents (Reagent a, Reagent b) were prepared.
Each of the various LPAs such as 1-palmitoyl-LPA, 1-stearoyl-LPA, 1-oleoyl-LPA, 2-oleoyl-LPA, 1-linoleoyl-LPA and 1-arachidonoyl-LPA was dissolved in physiological saline containing a surfactant, to prepare a 0.2 mmol/l sample. Two-hundred and forty microliters of Reagent a was added to 8 μl of the sample, and the mixture was reacted at 37° C. for 5 minutes. Thereafter, 80 μl of Reagent b was added thereto, and the mixture was further reacted at 37° C. for 5 minutes. The change in the absorbance at a wavelength of 570 nm for 5 minutes after adding Reagent b was determined using reagent blank as a control.
The absorbance dramatically increases after addition of reagent b, reaching a peak in several minutes. In addition, each of various phospholipids such as 1,2-dipalmitoylphosphatidic acid (1,2-dipalmitoyl-PA), 1-palmitoylphosphatidylethanolamine (1-palmitoyl-LPE), and 1-palmitoylphosphatidylcholine (1-palmitoyl-LPC) was dissolved in physiological saline containing a surfactant, to prepare a 0.2 mmol/l sample. The absorbance was determined by the same procedures.
Further, the change in the absorbance was determined by the same procedures for each of commercially available control sera, 0.2 mM 1-oleoyl-LPA, and one prepared by adding 1-oleoyl-LPA to the commercially available control serum so as to be 0.2 mM. The determination accuracy (%) of LPA was calculated from each of the obtained changes in the absorbance by the following equation: […]

bovine LPA phosphatase [3] = biological target: T1, bovine LPA phosphatase; assay: Hydrolysis of [3H]1-oleoyl-LPA evaluated by TLC; conditions: 5 nmol substrate, enzyme 0-150 ng
Procedure: The experiment for the specific activity and the reaction rate, and the like is performed by using the following separation method. Concretely, the above enzyme reaction product (50 μl of a mixture) was lyophilized, and monooleoylglycerol was added as a carrier. Thereafter, the mixture was analyzed by thin-layer chromatography (TLC) using a solvent system of n-butanol/acetic acid/water (30.4/4.8/4.8). The TLC plate was exposed to iodine steam, and spots of the monooleoylglycerol were scraped off, and the radioactivity was determined.
Next, in order to confirm the reactivity with 1-oleoyl-LPA in detail, the enzyme reaction was carried out in the same manner as in Test Example 2 using [^3H]1-oleoyl-LPA (5 nmol, 1×10^5 dpm) as a substrate, and evaluated by TLC (FIG. 6).

bovine LPA phosphatase [4] = biological target: T1, bovine LPA phosphatase; assay: Reactivity with [32P]LPA or [32P]PA, radioactivity of the aqueous layer; conditions: enzyme 0-175 ng, substrate 0-100 μM
Text: FIG. 7 is a graph for evaluating the reactivity of bovine LPA phosphatase with [^32P]LPA or [^32P] PA, each being previously purified with TLC.
In order to further confirm in detail the reactivity when 1-oleoyl-LPA and dioleoyl-PA were used as substrates, [^32P]LPA and [^32P]PA were used as substrates, which had been labeled by using [γ-^32P]ATP and E. coli DG kinase [Waggoner, D. W. et al., (1996) J. Biol. Chem. 271, 16506–16509], and purified with TLC previously. Each of the reactions was carried out by varying the enzyme amount (0–175 ng), or varying the concentration of the substrate (0–100 μM). The enzyme reaction was terminated with 100 μl of 0.1 N hydrochloric acid in methanol solution, and 200 μl of chloroform and 1 M magnesium chloride were each added. The mixture was vigorously mixed, and thereafter centrifuged at 1,000×g for 5 minutes. The radioactivity of 175 μl of the aqueous layer was determined to evaluate the enzyme reaction (FIG. 7).

Compound | hydrolysis by bovine LPA phosphatase (free phosphate) (bovine LPA phosphatase [1]) | further results
CCCCCCCCCCCCCCCC(=O)OC[C@@H](O)COP(=O)([O-])OCC[N+](C)(C)C [LPC, 1-palmitoylphosphatidylcholine] |  | whether assayed by the determination reagent (change in absorbance at 570 nm) [2]: cannot substantially be done
CCCCCCCCCCCCCCCC(=O)OC[C@H](COP(=O)(O)O)OC(=O)CCCCCCCCCCCCCCC [PA, 1,2-dipalmitoylphosphatidic acid] |  | whether assayed by the determination reagent (change in absorbance at 570 nm) [2]: cannot substantially be done
[3H]/C(CCCCCCCC)=C(\[3H])CCCCCCCC(=O)OC[C@@H](O)COP(=O)(O)O [[^3H]1-oleoyl-LPA, monooleoyl-[9,10-^3H]-lysophosphatidic acid] |  | hydrolysis to [3H]1-oleoylglycerol (TLC) (bovine LPA phosphatase [3]): hydrolyzed
O=P(O)(O)OCC(O)CO (stereo not drawn) [glycerol phosphate] | did not hydrolyze | 
CCCCCCCCCCCCC/C=C/[C@@H](O)[C@@H](N)COP(=O)(O)O [sphingosine 1-phosphate] | did not hydrolyze | 
Lysophosphatidic acid [LPA] |  | reactivity of bovine LPA phosphatase with 32P-labelled substrate (bovine LPA phosphatase [4]): extremely high reactivity
bisphosphatidic acid | did not hydrolyze | 
cardiolipin | did not hydrolyze | 
phosphatidic acid | did not hydrolyze | 

Now from value to compound, other results behind:

hydrolysis by bovine LPA phosphatase (free phosphate) (bovine LPA phosphatase [1]) | Compound | further results
strongly hydrolyzed | CCCCCCCC/C=C\CCCCCCCC(=O)OC[C@@H](O)COP(=O)(O)O [1-oleoyl-LPA, 1-oleoyl-lysophosphatidic acid] | Changes in Absorbance ([2]; 0.2 mmol/l, 570 nm): 0.0988
did not hydrolyze | ceramide 1-phosphate | 
